The results in this text go back to article PMC8968713, “Displacement of Native FXYD Protein From Na^+/K^+-ATPase With Novel FXYD Peptide Derivatives: Effects on Doxorubicin Cytotoxicity” (Frontiers in Oncology, 2022).

One data set deals with MCF-7 cells. Kind of data set: XTT cell viability, MCF-7 cells. In kind it is cell-based, human. As to conditions: for IC50: Homo sapiens, MCF7, 48 h, 48 h, XTT, 5 experiments. On the procedure:
(§1) Human pancreatic cancer cells BxPC-3, Panc-1, non-transformed human mammary epithelial MCF-10A cells, and human breast cancer cells MCF-7 and MDA-MB-468 were obtained from the American Type Culture Collection (ATCC, Manassas, VA, USA). The cells were then cultured as previously described ([6], [9], [11]). All cells were used within 20 passages of thawing and were free of mycoplasma contamination as ascertained by mycoplasma PCR detection ([12]).
(§2) Cell metabolic activity was assayed as described ([14]) by estimating the reduction of XTT (2,3-bis(2-methoxy-4-nitro-5-sulfophenyl)-2H-tetrazolium-5-carboxyanilide), using a commercially available kit (Cell Signaling Technology, Danvers, MA, USA) according to the manufacturer’s instructions. Metabolic activity was used as a surrogate for viability. For each set of experimental groups, we performed 5 experiments with 4 replicates. Caspase-3-like activity is increased through a protease cascade during the early stage of apoptosis ([15]), and we measured activities of Caspase 3/7 (DEVDase) using the caspase fluorogenic substrate (Calbiochem, San Diego, CA, USA) as described ([9]).
(§3) Results are presented as mean ± standard deviation (SD). The IC50 values for Dox in cell viability studies were calculated by GraphPad Prism. Statistical comparisons were made with a Mann–Whitney test, ANOVA, and repeated-measure ANOVA with Geisser–Greenhouse epsilon correction. p < 0.05 was considered statistically significant.
(§4) We examined if displacement of WT FXYD3 from Na^+/K^+-ATPase is reflected in viability of cells exposed to FXYD3-pep SKSK with and without co-exposure to Dox for 48 h. The culture medium that contained FXYD3-pep SKSK and Dox was replaced with fresh medium every 24 h.

The subject of the next data set is BxPC-3 cells. Kind of data set: XTT cell viability, BxPC-3 cells. As to conditions: Homo sapiens, BXPC-3, 48 h, 5 experiments. In kind it is cell-based. The procedure: as §1, §2, §3, §4

Read-outs that look alike come from different tables or passages of the source.

Turning to `COc1cccc2c1C(=O)c1c(O)c3c(c(O)c1C2=O)C[C@@](O)(C(=O)CO)C[C@@H]3O[C@H]1C[C@H](N)[C@H](O)[C@H](C)O1` [Dox, doxorubicin], the IC50 in the data set on MCF-7 cells (Dox alone (no peptide)) is ~4300 nM; in the data set with MCF-7 cells (co-exposure to 2 µM FXYD3-pep SKSK, read-out: IC50 for Dox, cell viability), ~500 nM; in the data set with BxPC-3 cells (Dox alone (no peptide)) it was ~1740 nM; in the data set with BxPC-3 cells (co-exposure to 1 μM FXYD3-pep SKSK, read-out: IC50 for Dox, cell viability) it was ~400 nM; with BxPC-3 cells (co-exposure to 2 μM FXYD3-pep SKSK, read-out: IC50 for Dox, cell viability), ~300 nM.
Turning to `C[C@@H]1O[C@@H](O[C@H]2C[C@@H](O)[C@]3(CO)[C@H]4[C@H](O)C[C@]5(C)[C@@H](C6=CC(=O)OC6)CC[C@]5(O)[C@@H]4CC[C@]3(O)C2)[C@H](O)[C@H](O)[C@H]1O` [ouabain], in the data set with MCF-7 cells (48-h co-exposure with 1 μM Dox, N = 5), the “Effect of ouabain on Dox-induced cytotoxicity” value is given as “modest augmentation of Dox-induced cytotoxicity decreased with an increase in ouabain concentration”. Also, in the data set on MCF-7 cells (48-h exposure, ouabain 25-150 nM, N = 5), the “Effect of ouabain alone on cell viability” value is listed as “reduced cell viability in a concentration-dependent manner”.
